Source: patent US20170233413A1, “SUBSTITUTED ANNULATED PYRIMIDINES AND USE THEREOF” (Bayer Pharma Aktiengesellschaft, priority 2014, published 2017)

Key:
[1] = target: T1, recombinant guanylate cyclase reporter cell line (Rattus norvegicus, UniProt P19686+P20595); assay: Effect on a recombinant guanylate cyclase reporter cell line; format: cell-based; settings: MEC = minimum effective concentration; in some cases means of individual determinations
T1 construct: expressed in transfected cells
T1 sequence (P19686 1-690): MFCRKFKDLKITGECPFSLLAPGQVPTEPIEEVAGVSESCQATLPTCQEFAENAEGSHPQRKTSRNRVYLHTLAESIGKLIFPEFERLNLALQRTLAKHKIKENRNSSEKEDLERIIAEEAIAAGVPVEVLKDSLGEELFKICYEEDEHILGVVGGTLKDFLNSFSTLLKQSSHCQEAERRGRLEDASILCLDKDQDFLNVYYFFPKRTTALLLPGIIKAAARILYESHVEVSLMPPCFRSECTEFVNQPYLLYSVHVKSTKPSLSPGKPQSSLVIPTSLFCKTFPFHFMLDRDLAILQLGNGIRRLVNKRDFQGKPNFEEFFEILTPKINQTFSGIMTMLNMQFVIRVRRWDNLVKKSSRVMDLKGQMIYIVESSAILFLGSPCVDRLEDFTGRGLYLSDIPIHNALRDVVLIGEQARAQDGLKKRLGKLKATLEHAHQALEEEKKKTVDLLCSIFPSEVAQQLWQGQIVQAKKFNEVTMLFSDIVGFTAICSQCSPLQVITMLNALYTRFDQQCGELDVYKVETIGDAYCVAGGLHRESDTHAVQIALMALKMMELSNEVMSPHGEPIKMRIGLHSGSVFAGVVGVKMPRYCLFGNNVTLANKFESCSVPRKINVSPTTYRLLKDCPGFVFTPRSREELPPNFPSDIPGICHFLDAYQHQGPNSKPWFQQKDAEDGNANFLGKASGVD
T1 sequence (P20595 1-619): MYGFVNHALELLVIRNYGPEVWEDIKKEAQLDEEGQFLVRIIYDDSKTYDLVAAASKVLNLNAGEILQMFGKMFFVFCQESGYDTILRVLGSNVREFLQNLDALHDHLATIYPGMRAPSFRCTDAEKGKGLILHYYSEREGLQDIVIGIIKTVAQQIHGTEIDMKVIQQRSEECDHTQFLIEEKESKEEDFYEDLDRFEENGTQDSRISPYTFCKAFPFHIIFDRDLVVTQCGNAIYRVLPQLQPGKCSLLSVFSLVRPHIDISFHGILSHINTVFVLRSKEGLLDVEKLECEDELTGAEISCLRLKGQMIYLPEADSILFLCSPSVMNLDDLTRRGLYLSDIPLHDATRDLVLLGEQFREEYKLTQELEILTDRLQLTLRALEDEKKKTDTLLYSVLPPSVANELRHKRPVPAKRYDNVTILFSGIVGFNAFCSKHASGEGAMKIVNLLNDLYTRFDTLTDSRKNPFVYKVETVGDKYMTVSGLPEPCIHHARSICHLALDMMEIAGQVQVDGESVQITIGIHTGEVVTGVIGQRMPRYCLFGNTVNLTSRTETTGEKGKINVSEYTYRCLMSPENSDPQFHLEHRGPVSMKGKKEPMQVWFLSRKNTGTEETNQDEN
Procedure: B-2. Effect on a Recombinant Guanylate Cyclase Reporter Cell Line
The cellular activity of the compounds of the invention is determined using a recombinant guanylate cyclase reporter cell line, as described in F. Wunder et al., Anal. Biochem. 2005, 339, 104-112. Representative values (MEC=minimum effective concentration) for the compounds of the invention are shown in the table below (Table 1B; in some cases as means of individual determinations): […]

[2] = target: T2, human phosphodiesterase 5 (PDE 5) (Homo sapiens, UniProt O76074); assay: Inhibition of human phosphodiesterase 5 (PDE 5); format: biochemical; settings: PDE 5 preparation from human platelets; in some cases means of individual determinations
T2 construct: PDE 5 preparations are obtained from human platelets by disruption; from tissue; host or cells: human platelets
Procedure: B-3. Inhibition of Human Phosphodiesterase 5 (PDE 5)
PDE 5 preparations are obtained from human platelets by disruption (Microfluidizer®, 800 bar, 3 passes), followed by centrifugation (75 000 g, 60 min, 4° C.) and ion exchange chromatography of the supernatant on a Mono Q 10/10 column (linear sodium chloride gradient, elution with a 0.2-0.3M solution of sodium chloride in buffer (20 mM Hepes pH 7.2, 2 mM magnesium chloride). Fractions having PDE 5 activity are combined (PDE 5 preparation) and stored at −80° C.
To determine their in vitro action on human PDE 5, the test substances are dissolved in 100% DMSO and serially diluted. Typically, dilution series (1:3) from 200 μM to 0.091 μM are prepared (resulting final concentrations in the test: 4 μM to 0.0018 μM). In each case 2 μl of the diluted substance solutions are placed into the wells of microtitre plates (Isoplate-96/200W; Perkin Elmer). Subsequently, 50 μl of a dilution of the above-described PDE 5 preparation are added. The dilution of the PDE 5 preparation is chosen such that during the later incubation less than 70% of the substrate are converted (typical dilution: 1:100; dilution buffer: 50 mM tris/hydrochloric acid pH 7.5, 8.3 mM magnesium chloride, 1.7 mM EDTA, 0.2% BSA). The substrate, [8-^3H] cyclic guanosine-3′,5′-monophosphate (1 μCi/μl; Perkin Elmer), is diluted 1:2000 with assay buffer (50 mM tris/hydrochloric acid pH 7.5, 8.3 mM magnesium chloride, 1.7 mM EDTA) to a concentration of 0.0005 μCi/μl. By addition of 50 μl (0.025 μCi) of the diluted substrate, the enzyme reaction is finally started. The test mixtures are incubated at room temperature for 60 min and the reaction is stopped by adding 25 μl of a suspension of 18 mg/ml yttrium scintillation proximity beads in water (phosphodiesterase beads for SPA assays, RPNQ 0150, Perkin Elmer). The microtitre plates are sealed with a film and left to stand at room temperature for 60 min. Subsequently, the plates are analysed for 30 s per well in a Microbeta scintillation counter (Perkin Elmer). IC50 values are determined using the graphic plot of the substance concentration against percentage PDE 5 inhibition.

Compound: CCC(=O)C(C)NC(=O)c1nc(-c2nn(Cc3ccccc3F)c3ncccc23)nc2c1C(C)(C)C(=O)N2 (racemic) [Example 66, rac-2-[1-(2-fluorobenzyl)-1H-pyrazolo[3,4-b]pyridin-3-yl]-5,5-dimethyl-6-oxo-N-(3-oxopentan-2-yl)-6,7-dihydro-5H-pyrrolo[2,3-d]pyrimidine-4-carboxamide]
- MEC [1]: 0.3 µM
- IC50 [2]: 87 nM

Compound: CC(CC1CC1)NC(=O)c1nc(-c2nn(Cc3ccccc3F)c3ncccc23)nc2c1C(C)(C)C(=O)N2 (racemic) [Example 68, rac-N-(1-cyclopropylpropan-2-yl)-2-[1-(2-fluorobenzyl)-1H-pyrazolo[3,4-b]pyridin-3-yl]-5,5-dimethyl-6-oxo-6,7-dihydro-5H-pyrrolo[2,3-d]pyrimidine-4-carboxamide]
- MEC [1]: 0.1 µM
- IC50 [2]: 13 nM

Compound: CC1(C)C(=O)Nc2nc(-c3nn(Cc4ccccc4F)c4ncccc34)nc(C(=O)NC3CCOC3=O)c21 (racemic) [Example 78, rac-2-[1-(2-fluorobenzyl)-1H-pyrazolo[3,4-b]pyridin-3-yl]-5,5-dimethyl-6-oxo-N-(2-oxotetrahydrofuran-3-yl)-6,7-dihydro-5H-pyrrolo[2,3-d]pyrimidine-4-carboxamide]
- MEC [1]: 0.3 µM
- IC50 [2]: 9.3 nM

Compound: CC1(C)C(=O)Nc2nc(-c3nn(Cc4ccccc4F)c4ncccc34)nc(C(=O)NCC3CCOC3)c21 (racemic) [Example 99, rac-2-[1-(2-fluorobenzyl)-1H-pyrazolo[3,4-b]pyridin-3-yl]-5,5-dimethyl-6-oxo-N-(tetrahydrofuran-3-ylmethyl)-6,7-dihydro-5H-pyrrolo[2,3-d]pyrimidine-4-carboxamide]
- MEC [1]: 0.3 µM
- IC50 [2]: 31 nM

Compound: CC(NC(=O)c1nc(-c2nn(Cc3ccccc3F)c3ncccc23)nc2c1C(C)(C)C(=O)N2)C1CC1 (racemic) [Example 104, rac-N-(1-cyclopropylethyl)-2-[1-(2-fluorobenzyl)-1H-pyrazolo[3,4-b]pyridin-3-yl]-5,5-dimethyl-6-oxo-6,7-dihydro-5H-pyrrolo[2,3-d]pyrimidine-4-carboxamide]
- MEC [1]: 0.1 µM
- IC50 [2]: 11 nM

Compound: CC(CNC(=O)c1nc(-c2nn(Cc3ccccc3F)c3ncccc23)nc2c1C(C)(C)C(=O)N2)N(C)C (racemic) [Example 105, rac-N-[2-(dimethylamino)propyl]-2-[1-(2-fluorobenzyl)-1H-pyrazolo[3,4-b]pyridin-3-yl]-5,5-dimethyl-6-oxo-6,7-dihydro-5H-pyrrolo[2,3-d]pyrimidine-4-carboxamide]
- MEC [1]: 1 µM
- IC50 [2]: 620 nM

Compound: CCC(C)CNC(=O)c1nc(-c2nn(Cc3ccccc3F)c3ncccc23)nc2c1C(C)(C)C(=O)N2 (racemic) [Example 125, rac-2-[1-(2-fluorobenzyl)-1H-pyrazolo[3,4-b]pyridin-3-yl]-5,5-dimethyl-N-(2-methylbutyl)-6-oxo-6,7-dihydro-5H-pyrrolo[2,3-d]pyrimidine-4-carboxamide]
- MEC [1]: 0.3 µM
- IC50 [2]: 30 nM

Compound: CC1(C)C(=O)Nc2nc(-c3nn(Cc4ccccc4F)c4ncccc34)nc(C(=O)NCC3CCCO3)c21 (racemic) [Example 130, rac-2-[1-(2-fluorobenzyl)-1H-pyrazolo[3,4-b]pyridin-3-yl]-5,5-dimethyl-6-oxo-N-(tetrahydrofuran-2-ylmethyl)-6,7-dihydro-5H-pyrrolo[2,3-d]pyrimidine-4-carboxamide]
- MEC [1]: 0.3 µM
- IC50 [2]: 28 nM

Compound: CC(C)C(C)NC(=O)c1nc(-c2nn(Cc3ccccc3F)c3ncccc23)nc2c1C(C)(C)C(=O)N2 (racemic) [Example 133, rac-2-[1-(2-fluorobenzyl)-1H-pyrazolo[3,4-b]pyridin-3-yl]-5,5-dimethyl-N-(3-methylbutan-2-yl)-6-oxo-6,7-dihydro-5H-pyrrolo[2,3-d]pyrimidine-4-carboxamide]
- MEC [1]: 1 µM
- IC50 [2]: 30 nM

Compound: CC1(C)C(=O)Nc2nc(-c3nn(Cc4ccccc4F)c4ncccc34)nc(C(=O)NCC(N)CC(F)(F)F)c21 (racemic) [Example 136, rac-N-(2-amino-4,4,4-trifluorobutyl)-2-[1-(2-fluorobenzyl)-1H-pyrazolo[3,4-b]pyridin-3-yl]-5,5-dimethyl-6-oxo-6,7-dihydro-5H-pyrrolo[2,3-d]pyrimidine-4-carboxamide]
- MEC [1]: 1 µM
- IC50 [2]: 42 nM

Compound: CC1(C)C(=O)Nc2nc(-c3nn(Cc4ccccc4F)c4ncc(F)cc34)nc(C(=O)N3CCCC3)c21 (single isomer, unassigned) [Example 54]
- MEC [1]: 0.03 µM
- IC50 [2]: 1200 nM

Compound: CC(N)(CNC(=O)c1nc(-c2nn(Cc3ncccc3F)c3ncc(F)cc23)nc2c1C(C)(C)C(=O)N2)CC(F)F (single isomer, unassigned) [Example 56]
- MEC [1]: 3 µM
- IC50 [2]: 120 nM

Compound: Cc1nc2c(cc1F)c(-c1nc3c(c(C(=O)NCC(C)(N)CC(F)F)n1)C(C)(C)C(=O)N3)nn2Cc1cccc(F)c1F (single isomer, unassigned) [Example 57]
- MEC [1]: 1 µM
- IC50 [2]: 100 nM

Compound: Cc1nc2c(cc1F)c(-c1nc3c(c(C(=O)NCC(C)(N)CC(F)F)n1)C(C)(C)C(=O)N3)nn2Cc1cccc(F)c1F (single isomer, unassigned) [Example 58]
- MEC [1]: 1 µM
- IC50 [2]: 86 nM

Compound: CC(N)(CNC(=O)c1nc(-c2nn(Cc3ncccc3F)c3ncc(F)cc23)nc2c1C(C)(C)C(=O)N2)CC(F)F (single isomer, unassigned; enantiomer a) [Example 55, ent-N-(2-Amino-4,4-difluoro-2-methylbutyl)-2-{5-fluoro-1-[(3-fluoropyridin-2-yl)methyl]-1H-pyrazolo[3,4-b]pyridin-3-yl}-5,5-dimethyl-6-oxo-6,7-dihydro-5H-pyrrolo[2,3-d]pyrimidine-4-carboxamide (enantiomer A)]
- MEC [1]: 3 µM
- IC50 [2]: 190 nM
